Measurements as given in patent US10316038B2, “Pyrrolopyrimidine ITK inhibitors for treating inflammation and cancer” (ACLARIS THERAPEUTICS, INC., priority 2017, dated 2019).

Experiments:
ITK = biological target: T1, ITK (Homo sapiens, UniProt Q08881); test: ITK inhibitor binding potency (LanthaScreen competitive binding assay); details: TR-FRET competitive binding, 10 nM ITK, 50 nM kinase tracer-236; pre-incubation condition not given; read-out: ITK Inhibition IC50
T1 sequence (Q08881 1-620): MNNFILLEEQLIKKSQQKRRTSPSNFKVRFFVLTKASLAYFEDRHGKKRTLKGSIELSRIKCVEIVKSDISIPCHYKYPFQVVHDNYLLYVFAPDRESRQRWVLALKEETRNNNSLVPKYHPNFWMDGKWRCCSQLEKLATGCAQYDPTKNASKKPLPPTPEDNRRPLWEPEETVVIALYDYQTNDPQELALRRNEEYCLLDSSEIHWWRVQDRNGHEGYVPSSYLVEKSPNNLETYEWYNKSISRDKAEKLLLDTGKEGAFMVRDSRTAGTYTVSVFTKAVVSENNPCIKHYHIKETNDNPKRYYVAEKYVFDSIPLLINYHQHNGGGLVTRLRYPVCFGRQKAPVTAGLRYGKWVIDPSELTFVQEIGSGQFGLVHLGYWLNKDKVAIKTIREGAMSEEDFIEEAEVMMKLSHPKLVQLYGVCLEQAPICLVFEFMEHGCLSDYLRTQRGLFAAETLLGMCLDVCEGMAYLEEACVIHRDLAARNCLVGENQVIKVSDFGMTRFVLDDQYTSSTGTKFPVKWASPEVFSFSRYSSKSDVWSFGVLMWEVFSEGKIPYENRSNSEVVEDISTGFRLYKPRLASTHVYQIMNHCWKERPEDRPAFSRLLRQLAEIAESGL
Outline: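 TR-FRET tracer displacement using 10 nM ITK, 2 nM Eu-anti-GST antibody, 50 nM kinase tracer-236 in 20 mM HEPES pH 7.5, 10 mM MgCl2, 0.01% BSA, 0.0005% Tween-20, 2% DMSO. Run with or without 2 h compound–ITK pre-incubation before tracer; 11-point dose-response 20 uM–0.34 nM, IC50 from 4-parameter fit of emission ratio.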

[1] = system: ITK phosphorylation of its substrate, PLCγ1, at Y783; test: ITK target modulation assay (phospho-Y783 PLCγ1 immunoblot in Jurkat T cells); assay type: cell-based; details: Homo sapiens, Jurkat, 2 h, 2 hours compound, CD3/CD28 Dynabeads stimulation 100 sec, anti-phospho-Y783 PLCγ1 immunoblot, read-out: PLC-γ Inhibition IC50
Outline: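 Human Jurkat T cells (4 million per tube) were pretreated with compound for 2 hours at 37° C. They were then stimulated with CD3/CD28 Dynabeads (1 bead per cell) for 100 sec and lysed. Lysates were resolved by SDS-PAGE and immunoblotted for phospho-PLCγ1, with HRP secondary antibody and ECL detection.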

| Compound | IC50 (ITK) | IC50 [1] |
| --- | --- | --- |
| C=CC(=O)N(C)c1cc(OC)cc(-c2cnc3[nH]cc(-c4cccc(C#N)c4)c3c2)c1 [Example 65, N-(3-(3-(3-cyano-phenyl)-1H-pyrrolo[2,3-b]-pyridin-5-yl)-5-methoxyphenyl)-N-methylacryl-amide] | ≤ 100 nM | ≤ 1000 nM |
| C=CC(=O)N(C)c1cncc(-c2cnc3[nH]cc(-c4cccc(C#N)c4)c3c2)c1 [Example 66, N-(5-(3-(3-cyano-phenyl)-1H-pyrrolo[2,3-b]-pyridin-5-yl)-pyridin-3-yl)-N-methylacrylamide] | ≤ 100 nM | ≤ 1000 nM |
| C=CC(=O)Nc1cc(-c2cnc3[nH]cc(-c4cncnc4)c3c2)cc(C(F)(F)F)c1 [Example 67, N-(3-(3-(pyrimidin-5-yl)-1H-pyrrolo-[2,3-b]pyridin-5-yl)-5-(trifluoro-methyl)phenyl)-acrylamide] | ≤ 100 nM | ≤ 1000 nM |
| C=CC(=O)Nc1cc(-c2cnc3[nH]cc(-c4cnc(OC)nc4)c3c2)cc(C(F)(F)F)c1 [Example 68, N-(3-(3-(2-methoxy-pyrimidin-5-yl)-1H-pyrrolo[2,3-b]pyridin-5-yl)-5-(trifluoromethyl)-phenyl)acrylamide] | ≤ 100 nM | ≤ 1000 nM |
| C=CC(=O)Nc1cc(F)cc(-c2cnc3[nH]cc(-c4cccc(C#N)c4)c3c2)c1 [Example 69, N-(3-(3-(3-cyano-phenyl)-1H-pyrrolo[2,3-b]-pyridin-5-yl)-5-fluorophenyl)-acrylamide] | ≤ 100 nM | > 5000 nM |
| CN(C)C/C=C/C(=O)Nc1cc(-c2cnc3c(c2)c(-c2cccc(C#N)c2)cn3C)cc(C(F)(F)F)c1 [Example 70] | > 1000 nM | > 5000 nM |
| COc1cc(-c2c[nH]c3ncc(-c4cncc(NC(=O)/C=C/CN(C)C)c4)cc23)ccn1 [Example 71, (E)-4-(dimethyl-amino)-N-(5-(3-(2-methoxypyridin-4-yl)-1H-pyrrolo[2,3-b]pyridin-5-yl)-pyridin-3-yl)but-2-enamide] | ≤ 100 nM | ≤ 1000 nM |
| CN(C)C/C=C/C(=O)N(C)c1cncc(-c2cnc3[nH]cc(-c4cccc(C#N)c4)c3c2)c1 [Example 72, (E)-N-(5-(3-(3-cyanophenyl)-1H-pyrrolo[2,3-b]-pyridin-5-yl)-pyridin-3-yl)-4-(dimethylamino)-N-methylbut-2-enamide] | ≤ 100 nM | 1000 to 5000 nM |
